From BigSolDB 2.1

Molecule `Cc1cnc(C(=O)O)cn1` has a solubility (mole fraction) (in 1,4-dioxane, 288.15 K) of 1.88e-05, a solubility (mole fraction) (in 1,4-dioxane, 293.15 K) of 2.16e-05 and a solubility (mole fraction) (in 1,4-dioxane, 298.15 K) of 2.48e-05. It also gave a solubility (mole fraction) (in 1,4-dioxane, 303.15 K) of 2.84e-05, a solubility (mole fraction) (in 1,4-dioxane, 308.15 K) of 3.29e-05 and a solubility (mole fraction) (in 1,4-dioxane, 313.15 K) of 3.84e-05. It also gave a solubility (mole fraction) (in 2-butanone, 273.15 K) of 5.8e-06, a solubility (mole fraction) (in 2-butanone, 278.15 K) of 6.8e-06 and a solubility (mole fraction) (in 2-butanone, 283.15 K) of 8e-06. The solubility (mole fraction) (in 2-butanone, 288.15 K) was 9.3e-06, the solubility (mole fraction) (in 2-butanone, 293.15 K) was 1.06e-05 and the solubility (mole fraction) (in 2-butanone, 298.15 K) was 1.21e-05. It also gave a solubility (mole fraction) (in 2-butanone, 303.15 K) of 1.39e-05, a solubility (mole fraction) (in 2-butanone, 308.15 K) of 1.58e-05 and a solubility (mole fraction) (in 2-butanone, 313.15 K) of 1.79e-05. For the same molecule, the solubility (mole fraction) (in acetone, 273.15 K) was 6.7e-06, the solubility (mole fraction) (in acetone, 278.15 K) was 8e-06 and the solubility (mole fraction) (in acetone, 283.15 K) was 9.3e-06. The solubility (mole fraction) (in acetone, 288.15 K) was 1.07e-05, the solubility (mole fraction) (in acetone, 293.15 K) was 1.21e-05 and the solubility (mole fraction) (in acetone, 298.15 K) was 1.39e-05. The solubility (mole fraction) (in acetone, 303.15 K) was 1.56e-05, the solubility (mole fraction) (in acetone, 308.15 K) was 1.78e-05 and the solubility (mole fraction) (in acetone, 313.15 K) was 2e-05. It also gave a solubility (mole fraction) (in acetonitrile, 273.15 K) of 2.48e-06, a solubility (mole fraction) (in acetonitrile, 278.15 K) of 2.92e-06 and a solubility (mole fraction) (in acetonitrile, 283.15 K) of 3.44e-06. It also gave a solubility (mole fraction) (in acetonitrile, 288.15 K) of 4.01e-06, a solubility (mole fraction) (in acetonitrile, 293.15 K) of 4.6e-06 and a solubility (mole fraction) (in acetonitrile, 298.15 K) of 5.34e-06. The solubility (mole fraction) (in acetonitrile, 303.15 K) was 6.05e-06, the solubility (mole fraction) (in acetonitrile, 308.15 K) was 6.88e-06 and the solubility (mole fraction) (in acetonitrile, 313.15 K) was 7.79e-06. It also gave a solubility (mole fraction) (in ethanol, 273.15 K) of 1.09e-05, a solubility (mole fraction) (in ethanol, 278.15 K) of 1.27e-05 and a solubility (mole fraction) (in ethanol, 283.15 K) of 1.49e-05. For the same molecule, the solubility (mole fraction) (in ethanol, 288.15 K) was 1.71e-05, the solubility (mole fraction) (in ethanol, 293.15 K) was 1.97e-05 and the solubility (mole fraction) (in ethanol, 298.15 K) was 2.25e-05. The solubility (mole fraction) (in ethanol, 303.15 K) was 2.57e-05, the solubility (mole fraction) (in ethanol, 308.15 K) was 2.93e-05 and the solubility (mole fraction) (in ethanol, 313.15 K) was 3.33e-05. For the same molecule, the solubility (mole fraction) (in ethyl acetate, 273.15 K) was 4.31e-06, the solubility (mole fraction) (in ethyl acetate, 278.15 K) was 5.04e-06 and the solubility (mole fraction) (in ethyl acetate, 283.15 K) was 5.82e-06. For the same molecule, the solubility (mole fraction) (in ethyl acetate, 288.15 K) was 6.63e-06, the solubility (mole fraction) (in ethyl acetate, 293.15 K) was 7.5e-06 and the solubility (mole fraction) (in ethyl acetate, 298.15 K) was 8.4e-06. The solubility (mole fraction) (in ethyl acetate, 303.15 K) was 9.45e-06, the solubility (mole fraction) (in ethyl acetate, 308.15 K) was 1.07e-05 and the solubility (mole fraction) (in ethyl acetate, 313.15 K) was 1.2e-05. The solubility (mole fraction) (in isopropanol, 273.15 K) was 7.8e-06, the solubility (mole fraction) (in isopropanol, 278.15 K) was 9.1e-06 and the solubility (mole fraction) (in isopropanol, 283.15 K) was 1.04e-05. It also gave a solubility (mole fraction) (in isopropanol, 288.15 K) of 1.19e-05, a solubility (mole fraction) (in isopropanol, 293.15 K) of 1.36e-05 and a solubility (mole fraction) (in isopropanol, 298.15 K) of 1.56e-05. The solubility (mole fraction) (in isopropanol, 303.15 K) was 1.78e-05, the solubility (mole fraction) (in isopropanol, 308.15 K) was 2.03e-05 and the solubility (mole fraction) (in isopropanol, 313.15 K) was 2.28e-05. The solubility (mole fraction) (in methanol, 273.15 K) was 8.5e-06, the solubility (mole fraction) (in methanol, 278.15 K) was 1e-05 and the solubility (mole fraction) (in methanol, 283.15 K) was 1.16e-05. For the same molecule, the solubility (mole fraction) (in methanol, 288.15 K) was 1.36e-05, the solubility (mole fraction) (in methanol, 293.15 K) was 1.56e-05 and the solubility (mole fraction) (in methanol, 298.15 K) was 1.77e-05. The solubility (mole fraction) (in methanol, 303.15 K) was 2.01e-05, the solubility (mole fraction) (in methanol, 308.15 K) was 2.29e-05 and the solubility (mole fraction) (in methanol, 313.15 K) was 2.57e-05. It also gave a solubility (mole fraction) (in n-butanol, 273.15 K) of 9.4e-06, a solubility (mole fraction) (in n-butanol, 278.15 K) of 1.08e-05 and a solubility (mole fraction) (in n-butanol, 283.15 K) of 1.25e-05. It also gave a solubility (mole fraction) (in n-butanol, 288.15 K) of 1.43e-05, a solubility (mole fraction) (in n-butanol, 293.15 K) of 1.65e-05 and a solubility (mole fraction) (in n-butanol, 298.15 K) of 1.9e-05. The solubility (mole fraction) (in n-butanol, 303.15 K) was 2.19e-05, the solubility (mole fraction) (in n-butanol, 308.15 K) was 2.51e-05 and the solubility (mole fraction) (in n-butanol, 313.15 K) was 2.87e-05. For the same molecule, the solubility (mole fraction) (in n-propanol, 273.15 K) was 1e-05, the solubility (mole fraction) (in n-propanol, 278.15 K) was 1.17e-05 and the solubility (mole fraction) (in n-propanol, 283.15 K) was 1.36e-05. The solubility (mole fraction) (in n-propanol, 288.15 K) was 1.58e-05, the solubility (mole fraction) (in n-propanol, 293.15 K) was 1.82e-05 and the solubility (mole fraction) (in n-propanol, 298.15 K) was 2.07e-05. It also gave a solubility (mole fraction) (in n-propanol, 303.15 K) of 2.34e-05, a solubility (mole fraction) (in n-propanol, 308.15 K) of 2.68e-05 and a solubility (mole fraction) (in n-propanol, 313.15 K) of 3.06e-05. The solubility (mole fraction) (in toluene, 273.15 K) was 9.7e-07, the solubility (mole fraction) (in toluene, 278.15 K) was 1.1e-06 and the solubility (mole fraction) (in toluene, 283.15 K) was 1.25e-06. The solubility (mole fraction) (in toluene, 288.15 K) was 1.42e-06, the solubility (mole fraction) (in toluene, 293.15 K) was 1.65e-06 and the solubility (mole fraction) (in toluene, 298.15 K) was 1.89e-06. The solubility (mole fraction) (in toluene, 303.15 K) was 2.18e-06, the solubility (mole fraction) (in toluene, 308.15 K) was 2.5e-06 and the solubility (mole fraction) (in toluene, 313.15 K) was 2.89e-06. The solubility (mole fraction) (in water, 273.15 K) was 3.32e-06, the solubility (mole fraction) (in water, 278.15 K) was 3.83e-06 and the solubility (mole fraction) (in water, 283.15 K) was 4.46e-06. The solubility (mole fraction) (in water, 288.15 K) was 5.16e-06, the solubility (mole fraction) (in water, 293.15 K) was 5.86e-06 and the solubility (mole fraction) (in water, 298.15 K) was 6.74e-06. For the same molecule, the solubility (mole fraction) (in water, 303.15 K) was 7.7e-06, the solubility (mole fraction) (in water, 308.15 K) was 8.83e-06 and the solubility (mole fraction) (in water, 313.15 K) was 1.01e-05.
